Reference: patent US11026944B2, “Compositions and methods for treating insomnia” (Eisai R&D Management Co., Ltd., priority 2014, dated 2021)
Where two headings read alike, the source gives them in different places.

Tests used:
subjects with insomnia = assay: 201 Study: population PK and PK/PD analysis; assay type: in vivo, human
Experimental: During the Treatment period, blood samples for plasma concentrations of compound A were obtained within 30 minutes predose each night (except on Day 1) in the clinic and within 1 hour of morning waketime following each night spent in the clinic. Plasma concentrations of compound A were measured using a validated liquid chromatography-tandem mass spectrometry (LC-MS/MS) assay.
The PK/PD Analysis Set was used to evaluate relationships between compound A concentrations and selected PD parameters. The relationships between exposure to compound A and selected PD endpoints (eg. KSS, DSST, RTI) were explored graphically and could be followed by population PK/PD modeling. The relationship between plasma concentrations of compound A at predose (trough), and within 1 hour after morning waketime, and selected PD parameters, was analyzed using Nonmem version 7.2 or later.
Measures of the PD effects of compound A included KSS, RTI, DSST, the WFB (RTI, Rapid Visual Processing [RVP], and Spatial Span [SSP]), POMS, melatonin levels, and the DLMO. Due to high variability and non-normal distribution in change from baseline of LPS, it was not possible to reliably model the concentration-response relationship between compound A PK parameters and LPS. Nonetheless, higher plasma concentrations of compound A were associated with larger decreases in LPS, up to approximately 10 ng/mL. This finding was consistent with the efficacy results, where LPS was decreased at doses of 2.5 mg and higher. […] When modeled, WASO data were best described by log-linear relationships with the maximum observed concentration (Cmax). […] However, subjects whose compound A plasma concentrations were greater than 20 ng/mL at 1 hour after waking had slightly greater increases on the KSS and a higher incidence of AEs of somnolence. This concentration is predicted to be achieved by most subjects receiving doses greater than 10 mg.

[1] = Multiple ascending dose study (002 Study): plasma PK; assay type: in vivo, human; settings: for concentration at 8 h / concentration at 10 h / AUC(0-t) / Cmax / Tmax / half-life: human, oral; for concentration at 8 h: plasma at 8 h, read-out: C8 Mean(SD); for concentration at 10 h: plasma at 10 h, read-out: C10 Mean(SD); for AUC(0-t) / Cmax / Tmax / half-life: plasma; for AUC(0-t): read-out: AUC(0-24) Mean(SD); for Cmax: read-out: Cmax Mean(SD); for Tmax: read-out: tmax Median
Experimental: A total of 48 healthy adult subjects (18 to 55 years) were to be enrolled into 1 of 6 cohorts sequentially in a gradual dose escalation manner, and randomized to receive either compound A or compound A-matched placebo in the evening 30 minutes before habitual bedtime, and after 3 hours fasting, for 14 days. Each cohort was to comprise 6 compound A-treated subjects and 2 placebo-treated subjects. Blood samples were collected for PK analysis at prespecified timepoints, and PD assessments were conducted.
Blood samples for determination of plasma concentrations of compound A were collected at Day 1 predose and postdose 0.5 (30 minutes), 1, 1.5, 2, 3, 4, 5, 6, 8, 10, and 12 hours; Days 2 to 13: predose; Day 14: predose and postdose 0.5 (30 minutes), 1, 1.5, 2, 3, 4, 5, 6, 8, 10, and 12 hours; Day 15: 24 hours after Day 14 dose; Days 16 to 19: 36, 60, 84, and 108 hours after Day 14 dose; Day 21, 24, 26, 28: As close as possible to 156, 228, 276, and 324 hours after Day 14 dose. Plasma concentrations of compound A were measured in the same manner as described in Example 1 and the above noncompartmental plasma PK parameters were calculated for compound A.
Compound A capsules and compound A-matched placebo capsules were available in strengths of 2.5 mg, 10 mg, and 50 mg. All study drugs were administered as daily doses using one or more compound A-capsules or compound A-matched placebo capsules due to the test dose.

[2] = 2.5 mg, Day 1, 2.5 mg once daily in the evening
[3] = 2.5 mg, Day 14, 2.5 mg once daily for 14 days
[4] = 5 mg, Day 1, 5 mg once daily in the evening
[5] = 5 mg, Day 14, 5 mg once daily for 14 days
[6] = 10 mg, Day 1, 10 mg once daily in the evening
[7] = 10 mg, Day 14, 10 mg once daily for 14 days
[8] = 25 mg, Day 1, 25 mg once daily in the evening
[9] = 25 mg, Day 14, 25 mg once daily for 14 days
[10] = 50 mg, Day 1, 50 mg once daily in the evening
[11] = 50 mg, Day 14, 50 mg once daily for 14 days
[12] = 75 mg, Day 1, 75 mg once daily in the evening
[13] = 75 mg, Day 14, 75 mg once daily for 14 days

## Cc1ncc(OC[C@@]2(c3cccc(F)c3)C[C@H]2C(=O)Nc2ccc(F)cn2)c(C)n1 [Compound A, (1R,2 S)-2-(((2,4-dimethylpyrimidin-5-yl)oxy)methyl)-2-(3-fluorophenyl)-N-(5-fluoropyridin-2-yl) cyclopropanecarboxamide]
Subjects with insomnia; PK/PD analyses
  next-day residual sleepiness (KSS, DSST, RTI) vs time-matched plasma concentrations: did not show any apparent relationship
Subjects with insomnia; PK/PD model
  exposure-response relationship for WASO: log-linear relationship with Cmax
Subjects with insomnia; asymptote above this concentration
  plasma concentration up to which higher concentrations were associated with larger decreases in LPS: approximately 10 ng/mL
Subjects with insomnia; at 1 hour after waking
  plasma concentration associated with slightly greater increases on the KSS and higher incidence of AEs of somnolence: greater than 20 ng/mL
Subjects with insomnia; population PK
  Apparent clearance: independent of dose and time
  PK model: 2-compartment model with elimination from the central compartment
Subjects with insomnia; predicted
  doses predicted to achieve plasma concentration greater than 20 ng/mL at 1 hour after waking in most subjects: greater than 10 mg
[1]; 14 days once daily
  Accumulation: lower than predicted by the terminal half-life
[1]; Day 1, 25 mg once daily in the evening
  Cmax Mean(SD): 92.0(24.0) ng/mL
[1]; Day 14, 50 mg once daily for 14 days
  t1/2 Mean(SD): 55.5(21.3) h
[1]; dose-normalized data, Day 1
  AUC(0-24 h) dose proportionality: increased slightly less than in proportion to dose
[1]; dose-normalized data, Day 1 and Day 14
  Cmax dose proportionality: increased slightly less than in proportion to dose
[1]; dose-normalized data, Day 14
  AUC(0-24 h) dose proportionality: increased in approximate proportion to dose
[1]; Day 1, 2.5 mg
  concentration at 8 h: 2.33 ng/mL
  concentration at 10 h: 2.04 ng/mL
[1]; Day 1, 5 mg
  concentration at 8 h: 4.4 ng/mL
  concentration at 10 h: 3.63 ng/mL
[1]; Day 1, 10 mg
  concentration at 8 h: 8.51 ng/mL
  concentration at 10 h: 7.72 ng/mL
[1]; Day 1, 25 mg
  concentration at 8 h: 24.1 ng/mL
  concentration at 10 h: 19.8 ng/mL
[1]; Day 1, 50 mg
  concentration at 8 h: 38.1 ng/mL
  concentration at 10 h: 32.9 ng/mL
[1]; Day 1, 75 mg
  concentration at 8 h: 54.5 ng/mL
  concentration at 10 h: 44.2 ng/mL
[1]; [2]
  AUC(0-t): 59.4 ng·h/mL
  Cmax: 10.1 ng/mL
  Tmax: 2.02 h
[1]; [3]
  AUC(0-t): ~120 ng·h/mL
  Cmax: ~15 ng/mL
  Tmax: ~2 h
[1]; 2.5 mg, Day 14, 2.5 mg once daily for 14 days, read-out: t1/2 Mean(SD) (converted)
  half-life: ~44 h
[1]; [4]
  AUC(0-t): 108 ng·h/mL
  Cmax: 19.4 ng/mL
  Tmax: 1.25 h
[1]; [5]
  AUC(0-t): ~190 ng·h/mL
  Cmax: ~24 ng/mL
  Tmax: ~1 h
[1]; 5 mg, Day 14, 5 mg once daily for 14 days, read-out: t1/2 Mean(SD) (converted)
  half-life: ~46 h
[1]; [6]
  AUC(0-t): 187 ng·h/mL
  Cmax: 30.4 ng/mL
  Tmax: 3.25 h
[1]; [7]
  AUC(0-t): ~360 ng·h/mL
  Cmax: ~47 ng/mL
  Tmax: ~2 h
[1]; 10 mg, Day 14, 10 mg once daily for 14 days, read-out: t1/2 Mean(SD) (converted)
  half-life: ~55 h
[1]; 10 mg, doses of 10 mg and higher, following Day 14 dosing, read-out: mean terminal half-life (converted)
  half-life: ~55 h
[1]; [8]
  AUC(0-t): 549 ng·h/mL
  Tmax: 1.5 h
[1]; [9]
  AUC(0-t): 1100 ng·h/mL
  Cmax: 107 ng/mL
  Tmax: 3 h
[1]; 25 mg, Day 14, 25 mg once daily for 14 days, read-out: t1/2 Mean(SD) (converted)
  half-life: 50.6 h
[1]; 50 mg, 50-mg dose, read-out: effective half-life based on accumulation (converted)
  half-life: 28 h
[1]; [10]
  AUC(0-t): 931 ng·h/mL
  Cmax: 199 ng/mL
  Tmax: 2 h
[1]; [11]
  AUC(0-t): 2300 ng·h/mL
  Cmax: 220 ng/mL
  Tmax: 2.02 h
[1]; 75 mg, 75-mg dose, read-out: effective half-life based on accumulation (converted)
  half-life: 39.3 h
[1]; [12]
  AUC(0-t): 1260 ng·h/mL
  Cmax: 223 ng/mL
  Tmax: 3 h
[1]; [13]
  AUC(0-t): 3790 ng·h/mL
  Cmax: 420 ng/mL
  Tmax: 2 h
[1]; 75 mg, Day 14, 75 mg once daily for 14 days, read-out: t1/2 Mean(SD) (converted)
  half-life: 56.2 h
[1]; 2.5- and 5-mg doses, average, read-out: terminal half-life (converted)
  half-life: ~45 h
[1]; doses ranging from 2.5 to 25 mg, read-out: effective half-life based on accumulation (converted)
  half-life: 16.9 to 24.7 h
